The source of these data is patent publication US10617656B2, “Methods of increasing the cytotoxicity of chemotherapeutic agents with multisubstrate inhibitors of histone, protein-Lys, polyamine acetylation, and polyamine metabolism” (Vanderbilt University, priority 2010, dated 2020).

The target of the assay is T1, p300 catalytic domain (Homo sapiens, UniProt Q09472).
T1 construct: the catalytic domain of p300(965-1810); purchased Active Motif, Carlsbad, Calif
T1 sequence (Q09472 965-1810): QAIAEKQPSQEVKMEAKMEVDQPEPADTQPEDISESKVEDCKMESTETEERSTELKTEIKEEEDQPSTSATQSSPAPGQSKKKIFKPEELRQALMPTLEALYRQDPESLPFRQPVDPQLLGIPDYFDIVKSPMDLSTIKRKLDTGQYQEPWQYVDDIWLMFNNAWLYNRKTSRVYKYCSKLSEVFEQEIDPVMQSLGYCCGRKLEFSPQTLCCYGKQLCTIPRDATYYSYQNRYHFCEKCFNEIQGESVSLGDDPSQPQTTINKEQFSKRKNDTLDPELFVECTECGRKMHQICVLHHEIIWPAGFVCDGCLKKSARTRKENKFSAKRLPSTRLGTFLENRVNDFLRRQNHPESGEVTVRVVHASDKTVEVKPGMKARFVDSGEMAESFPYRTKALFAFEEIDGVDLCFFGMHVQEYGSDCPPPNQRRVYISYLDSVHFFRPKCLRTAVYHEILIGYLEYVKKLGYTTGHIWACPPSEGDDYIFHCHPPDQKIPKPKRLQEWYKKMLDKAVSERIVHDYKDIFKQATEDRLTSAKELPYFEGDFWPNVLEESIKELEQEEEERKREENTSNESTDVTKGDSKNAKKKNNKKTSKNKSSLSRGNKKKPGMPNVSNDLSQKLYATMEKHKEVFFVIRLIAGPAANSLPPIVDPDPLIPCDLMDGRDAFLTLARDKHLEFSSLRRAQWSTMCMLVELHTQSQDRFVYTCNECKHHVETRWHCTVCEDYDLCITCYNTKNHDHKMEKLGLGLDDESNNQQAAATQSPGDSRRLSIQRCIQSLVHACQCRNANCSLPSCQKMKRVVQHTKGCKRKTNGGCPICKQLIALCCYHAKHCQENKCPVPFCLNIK
In words: 96-well fluorescent HAT assay kit (Active Motif), H3 peptide (5-23). Type of assay: biochemical. The protocol: (A) Structures of compound 1a (spermidine CoA), and the acetylated side chain of a lysine residue of a polypeptide chain. (B) Inhibition of p300 acetylating activity as a function of 1a concentration. The catalytic domain of recombinant p300 (1284-1660) was assayed under steady state conditions using an N-terminal acetylated histone H4 peptide substrate, Ac-H4(1-19)-NH2. Closed circles represent experimental data points; plain line represents theoretical profile based on data reduction software (Prism) using a one site inhibition model. (C) In vitro assay of p300 activity using a 96-well assay kit (ActivMotif) and an H3 peptide substrate (5-23), according to manufacturer's instructions. Bars represent average of duplicates. […]
Reactions were set up in duplicate following the protocol supplied by the kit. […] Activity is measured in fluorescence units. […]
Assays were performed using the fluorescent HAT assay kit (Active Motif, Carlsbad, Calif.), an H3 peptide as substrate (residues 5-23), the p300 catalytic domain as enzyme, and 50 μM inhibitor in duplicate, according to the manufacturer's instructions. […] The reaction product, CoASH, was detected spectrophotometrically by reaction with 5,5′-dithiobis-2-nitrobenzoic acid (DTNB). Assays were carried out at 30° C. for 30 minutes, conditions which had previously been determined in kinetic assays to sufficient to achieve steady state.

As to `CC(=O)NCCSCC(=O)NCCCNCCCCNCCCN` [spm-3], the “inhibition of p300 HAT activity” value (FIG. 24, p300(965-1810), H3 peptide) is given as “HAT inhibitors”. Consider `CC(C)(COP(=O)(O)OP(=O)(O)OC[C@H]1O[C@@H](n2cnc3c(N)ncnc32)[C@H](O)[C@@H]1OP(=O)(O)O)[C@@H](O)C(=O)NCCC(=O)NCCSCC(=O)NCCCNCCCCN` [1a, spermidine[N1]-CoA], for which the inhibition at 50 µM (50 μM inhibitor, Active Motif 96-well assay, FIG. 9, read-out: inhibition of incorporation of acetyl groups into the H4 peptide substrate relative to untreated wells) was found to be 88%.
